# Read-outs that look alike come from different tables or passages of the source.
# Legend:
# [1] = system: Mycobacterium tuberculosis H37Ra ITM-M006710 (ATCC 9431); test: Microdilution broth, modified Microplate Alamar Blue Assay, whole cell growth inhibition; type: cell-based; settings: Mycobacterium tuberculosis, read-out: MIC Mtb H37Ra
# [2] = system: Mycobacterium aurum DSM 43999 (ATCC 23366); test: as above; type: cell-based; settings: Mycolicibacterium aurum; in vitro, Middlebrook 7H9 broth, resazurin; read-out: MIC Mycobacterium aurum
# [3] = system: HepG2 cells; test: HepG2 cytotoxicity, CellTiter 96 (MTS) assay; type: cell-based, human; settings: for IC50: Homo sapiens, HepG2, 24 h incubation, > means higher concentration not reproducible due to precipitation, read-out: HepG2 IC50; for SI, selectivity index: IC50 (HepG2)/MIC against Mtb H37Ra (in µM)
# [4] = system: Mycobacterium smegmatis DSM 43465 (ATCC 607); test: Microdilution broth, modified Microplate Alamar Blue Assay, whole cell growth inhibition; type: cell-based; settings: Mycolicibacterium smegmatis; in vitro, Middlebrook 7H9 broth, resazurin; read-out: MIC Mycobacterium smegmatis
# [5] = system: Trichophyton interdigitale ATCC 9533, CCM 8377; test: Antifungal microdilution broth method (EUCAST); type: cell-based; settings: 72 h, standards, read-out: MIC against Trichophyton interdigitale
# [6] = system: Candida tropicalis ATCC 750, CCM 8264; test: Antifungal microdilution broth method (EUCAST); type: cell-based; settings: 48 h, standards, read-out: MIC against C. tropicalis
# [7] = system: Candida krusei ATCC 6258, CCM 8271; test: Antifungal microdilution broth method (EUCAST); type: cell-based; settings: Pichia kudriavzevii
# [8] = system: Candida parapsilosis ATCC 22019, CCM 8260; test: Antifungal microdilution broth method (EUCAST); type: cell-based; settings: Lodderomyces parapsilosis
# [9] = system: Aspergillus fumigatus ATCC 204305; test: Antifungal microdilution broth method (EUCAST); type: cell-based; settings: ATCC204305, 48 h, standards, read-out: MIC against Aspergillus fumigatus
# [10] = system: Aspergillus flavus CCM 8363; test: Antifungal microdilution broth method (EUCAST); type: cell-based; settings: CCM8363, 48 h, standards, read-out: MIC against Aspergillus flavus
# [11] = system: Absidia corymbifera CCM 8077 (Lichtheimia corymbifera); test: Antifungal microdilution broth method (EUCAST); type: cell-based; settings: CCM8077, 48 h, standards, read-out: MIC against Lichtheimia corymbifera
# [12] = system: Candida albicans ATCC 24433, CCM 8320; test: Antifungal microdilution broth method (EUCAST); type: cell-based
# [13] = 48 h, standards, read-out: MIC against C. krusei
# [14] = 48 h, standards, read-out: MIC against C. parapsilosis
# [15] = 48 h, standards, read-out: MIC against Candida albicans
# [16] = in vitro, Middlebrook 7H9 broth, resazurin
smiles,measurement,setting,value
"CCc1ccc(NC(=O)c2cnc(Cl)cn2)cc1 [Compound 5, 5-Chloro-N-(4-ethylphenyl)pyrazine-2-carboxamide]",MIC,[1],250 µg/mL
same,MIC,[2],≥ 500 µg/mL
same,IC50,[3],> 50 µM
same,MIC,[4],≥ 500 µg/mL
"C[C@@H]1[C@H](O)[C@@H](C)/C=C/C=C/C=C/C=C/C=C/C=C/C=C/[C@H](O[C@@H]2O[C@H](C)[C@@H](O)[C@H](N)[C@@H]2O)C[C@@H]2O[C@](O)(C[C@@H](O)C[C@@H](O)[C@H](O)CC[C@@H](O)C[C@@H](O)CC(=O)O[C@H]1C)C[C@H](O)[C@H]2C(=O)O [Amphotericin B, amphotericin B, reference compound]",MIC,[5],2 µg/mL
same,MIC,[6],1 µg/mL
same,MIC,[7]; [13],1 µg/mL
same,MIC,"[7]; Table 3, standard, read-out: MIC CK (Candida krusei)",1 µg/mL
same,MIC,"[7]; Table 3, read-out: MIC CK (Candida krusei)",1.08 µM
same,MIC,[8]; [14],0.5 µg/mL
same,MIC,"[8]; Table 3, standard, read-out: MIC CP (Candida parapsilosis)",0.5 µg/mL
same,MIC,"[8]; Table 3, read-out: MIC CP (Candida parapsilosis)",0.54 µM
same,MIC,[9],1 µg/mL
same,MIC,[10],8 µg/mL
same,MIC,[11],0.5 µg/mL
same,MIC,[12]; [15],0.5 µg/mL
same,MIC,"[12]; Table 3, read-out: MIC CA (Candida albicans)",0.54 µM
same,MIC,"[12]; Table 3, standard, read-out: MIC CA (Candida albicans)",0.5 µg/mL
"O=C(Nc1cccc(C(F)(F)F)c1)c1cnc(Cl)cn1 [Compound 1, 5-Chloro-N-(3-(trifluoromethyl)phenyl)pyrazine-2-carboxamide]",MIC,[1]; [16],7.81 µg/mL
same,MIC,[2],≥ 500 µg/mL
same,IC50,[3],124 µM
same,"SI, selectivity index",[3],4.78
same,MIC,[4],≥ 500 µg/mL
"O=C(Nc1ccc(O)cc1)c1cnc(Cl)cn1 [Compound 3, 5-Chloro-N-(4-hydroxyphenyl)pyrazine-2-carboxamide]",MIC,[1]; [16],62.5 µg/mL
same,MIC,[2],≥ 250 µg/mL
same,IC50,[3],350 µM
same,"SI, selectivity index",[3],1.40
same,MIC,[4],≥ 250 µg/mL
"Cc1ccc(NC(=O)c2cnc(Cl)cn2)cc1 [Compound 4, 5-Chloro-N-(p-tolyl)pyrazine-2-carboxamide]",MIC,[1]; [16],≥ 500 µg/mL
same,MIC,[2],≥ 500 µg/mL
same,IC50,[3],> 50 µM
same,MIC,[4],≥ 500 µg/mL
"C[C@@H](c1ncncc1F)[C@](O)(Cn1cncn1)c1ccc(F)cc1F [voriconazole, reference compound]",MIC,[5],> 16 µg/mL
same,MIC,[6],> 16 µg/mL
same,MIC,[7]; [13],0.5 µg/mL
same,MIC,[8]; [14],8 µg/mL
same,MIC,[9],1 µg/mL
same,MIC,[10],> 16 µg/mL
same,MIC,[11],> 16 µg/mL
same,MIC,[12]; [15],> 16 µg/mL
"CCCNc1cnc(C(=O)Nc2ccc(Cl)cc2O)cn1 [Compound 6a, N-(4-chloro-2-hydroxyphenyl)-5-(propylamino)pyrazine-2-carboxamide]",MIC,[1]; [16],≥ 500 µg/mL
same,MIC,[2],≥ 500 µg/mL
same,melting point,,248.9 to 250 °C
same,MIC,[4],3.91 µg/mL

# — paper PMC7180572, “5-Alkylamino-N-phenylpyrazine-2-carboxamides: Design, Preparation, and Antimycobacterial Evaluation” (Molecules, 2020)
